Experimental data from patent US5462933A, “Modified bile acid conjugates, and their use as pharmaceuticals” (Hoechst Aktiengesellschaft, priority 1989, dated 1995).

Molecular target: T1, Na+-dependent bile acid transport system (Oryctolagus cuniculus, UniProt Q28727)
T1 construct: brush-border membrane vesicles from the ileum of rabbits; from tissue; host or cells: terminal ileum of male New Zealand rabbits, brush-border membrane vesicles
T1 sequence (Q28727 1-347): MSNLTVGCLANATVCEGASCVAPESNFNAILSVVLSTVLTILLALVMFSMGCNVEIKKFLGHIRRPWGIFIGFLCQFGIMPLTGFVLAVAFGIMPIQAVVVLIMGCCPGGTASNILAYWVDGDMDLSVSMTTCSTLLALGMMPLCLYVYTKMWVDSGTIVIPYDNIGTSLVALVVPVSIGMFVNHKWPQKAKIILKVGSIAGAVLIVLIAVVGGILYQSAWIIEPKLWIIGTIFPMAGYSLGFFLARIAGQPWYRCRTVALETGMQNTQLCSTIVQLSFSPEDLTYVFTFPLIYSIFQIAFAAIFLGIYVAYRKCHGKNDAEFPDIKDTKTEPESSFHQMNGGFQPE
Assay: Inhibition of Na+-dependent [3H]taurocholate absorption into brush-border membrane vesicles of the ileum
Format: biochemical, rabbit
Experimental: The preparation of brush-border membrane vesicles from the intestinal cells of the small intestine was carried out using the so-called Mg^2+ precipitation method. Male New Zealand rabbits (2-2.5 kg body weight) were sacrificed by intravenous injection of 0.5 ml of T-61^R. The small intestine was removed and rinsed with ice-cold physiological saline solution. The terminal 3/10 of the small intestine (measured in the oral-rectal direction, i.e. the terminal ileum, which contains the active Na^+ -dependent bile acid transport system) were used for preparation of the brush-border membrane vesicles. The intestines were frozen at -80° C. under nitrogen in plastic bags. The frozen intestines were thawed in a water bath at 30° C. in order to prepare the membrane vesicles. The mucosa was scraped off and suspended in 60 ml of ice-cold 12 mM trys/HCl buffer (pH 7.1)/300 mM mannitol, 5 mM EGTA/10 mg/l of phenylmethylsulfonyl fluoride/1 mg/l of soybean trypsin inhibitor (32 U/mg)/0.5 mg/l of bovine lung trypsin inhibitor (193 U/mg)/5 mg/l of bacitracin. After diluting to 300 ml with ice-cold distilled water, the suspension was homogenized with ice-cooling for 3 minutes at 75% of maximum power using an Ultraturrax (18 rod, IKA Werk Staufen, Federal Republic of Germany). After addition of 3 ml of 1M MgCl2 solution (final concentration 10 mM), the homogenate was allowed to stand at 0° C. for exactly 1 minute. As a result of addition of Mg^2+, the cell membranes aggregate and precipitate with the exception of the brush-border membranes. After centrifugation at 3,000×g (5,000 rpm, SS-34 rotor) for 15 minutes, the precipitate is discarded and the supernatant which contains the brush-border membranes is centrifuged at 26,700×g (15,000 rpm, SS-34 rotor) for 30 minutes. The supernatant was discarded, and the precipitate was rehomogenized in 60 ml of 12 mM tris/HCl buffer (pH 7.1)/60 mM mannitol, 5 mM EGTA using a Potter Elvejhem homogenizer (Braun Melsungen, 900 rpm, 10 strokes). After addition of 0.1 ml of 1M MgCl2 solution and an incubation time of 15 minutes at 0° C., the mixture was again centrifuged at 3,000×g for 15 minutes. The supernatant was then again centrifuged at […] (15,000 rpm, SS-34 rotor) for 30 minutes. The precipitate was taken up in 30 ml of 10 mM tris/hepes buffer (pH 7.4)/300 mM mannitol and homogeneously resuspended by 20 strokes in a Potter Elvejhem homogenizer at 1,000 rpm. After centrifugation at 48,000×g (20,000 rpm, SS-34 rotor) for 30 minutes, the precipitate was taken up in 0.5 to 2 ml of tris/hepes buffer (pH 7.4)/280 mM mannitol (final concentration 20 mg/ml) and resuspended with the aid of a tuberculin syringe using a 27 gauge needle. The vesicles were either used immediately after preparation for transport investigations or stored at -196° C. in liquid nitrogen in 4 mg portions.
The absorption of substrates into brush-border membrane vesicles was determined by means of the so-called membrane filtration technique. 10 μl of the vesicle suspension (100 μg of protein) were pipetted on the wall of a polystyrene incubation tube (11×70 mm) as a drop which contained the incubation medium together with the corresponding ligands (90 μl ). […] The incubation medium was filtered through a polyvinylidene fluoride membrane filter (SYHV LO 4NS, 0.45 μm, 4 mm .phi., Millipore, Eschborn, Federal Republic of Germany). The transport measurement was begun by mixing the vesicles with the incubation medium. […] After the desired incubation time (customarily 1 min), the transport was stopped by addition of 1 ml of ice-cold stop solution (10 mM tris/hepes, (pH 7.4)/150 mM KCl). The resulting mixture was immediately filtered off with suction in a vacuum of 25 to 35 mbar through a membrane filter made of cellulose nitrate (ME 25, 0.45 μm, 25 mm diameter, Schleicher & Schuell, Dassell, Federal Republic of Germany). The filter was subsequently washed with 5 ml of ice-cold Stop solution.

[1] = Na+-dependent transport component, 50 μM taurocholate

With `C[C@H](CCC(=O)NCCS(=O)(=O)O)[C@H]1CC[C@H]2[C@@H]3[C@H](O)C[C@@H]4C[C@@H](OCCNC(=O)CCCc5ccc(N(CCCl)CCCl)cc5)CC[C@]4(C)[C@H]3C[C@H](O)[C@]12C` [Example 67] the IC50 was 47.5 µM, the IC25 [1] was 24 µM and the IC75 [1] was 270 µM.
